Biological target: Tyrosine-protein kinase BTK (Homo sapiens, UniProt Q06187)
Assay: In Vitro BTK Kinase Assay
Procedure: The purpose of the BTK in vitro assay is to determine compound potency against BTK through the measurement of IC50. […] For a typical assay, a 24 μL aliquot of a ATP/peptide master mix (final concentration; ATP 10 μM, polyGAT 100 nM) in kinase buffer (10 mM Tris-HCl pH 7.5, 10 mM MgCl2, 200 μM Na3PO4, 5 mM DTT, 0.01% Triton X-100, and 0.2 mg/ml casein) is added to each well. […] The assay is incubated for 30 minutes before being stopped with […] of a 50 mM EDTA solution. […] The plate is covered and incubated for 45 minutes at room temperature.

Tyrosine-protein kinase BTK, sequence (Q06187 whole entry): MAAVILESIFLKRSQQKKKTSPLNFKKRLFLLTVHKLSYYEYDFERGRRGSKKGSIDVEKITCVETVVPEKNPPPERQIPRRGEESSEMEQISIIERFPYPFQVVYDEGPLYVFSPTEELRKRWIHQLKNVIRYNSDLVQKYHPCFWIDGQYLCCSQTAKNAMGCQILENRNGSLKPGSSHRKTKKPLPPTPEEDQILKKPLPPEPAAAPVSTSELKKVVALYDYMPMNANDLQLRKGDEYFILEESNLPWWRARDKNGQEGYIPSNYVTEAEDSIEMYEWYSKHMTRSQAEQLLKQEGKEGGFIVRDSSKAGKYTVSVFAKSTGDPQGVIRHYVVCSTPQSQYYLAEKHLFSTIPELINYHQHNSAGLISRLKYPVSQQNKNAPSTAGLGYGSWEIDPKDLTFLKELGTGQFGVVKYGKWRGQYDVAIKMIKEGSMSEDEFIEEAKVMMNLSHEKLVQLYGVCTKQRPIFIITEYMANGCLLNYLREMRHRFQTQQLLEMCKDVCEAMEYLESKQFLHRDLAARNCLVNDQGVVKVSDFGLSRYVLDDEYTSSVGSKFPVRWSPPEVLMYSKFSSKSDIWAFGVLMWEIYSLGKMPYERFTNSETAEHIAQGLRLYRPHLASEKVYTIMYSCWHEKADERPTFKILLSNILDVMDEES

In the case of `CC(C)(C)c1nc(C(=O)NCc2cc(F)c(-c3ccnc(NC(=O)C4CC4)c3)cc2C(F)(F)F)no1` [US12240838, Compound 62], the IC50 is reported as < 1 nM.

— BindingDB's records for patent US12240838 (Biogen Ma, 2025)
